In US5679671A, “Amino acid derivative” (Eisai Co., Ltd., priority 1993, dated 1997):

Biological target: T1, NEP (Rattus norvegicus, UniProt P07861)
T1 sequence (P07861 1-750): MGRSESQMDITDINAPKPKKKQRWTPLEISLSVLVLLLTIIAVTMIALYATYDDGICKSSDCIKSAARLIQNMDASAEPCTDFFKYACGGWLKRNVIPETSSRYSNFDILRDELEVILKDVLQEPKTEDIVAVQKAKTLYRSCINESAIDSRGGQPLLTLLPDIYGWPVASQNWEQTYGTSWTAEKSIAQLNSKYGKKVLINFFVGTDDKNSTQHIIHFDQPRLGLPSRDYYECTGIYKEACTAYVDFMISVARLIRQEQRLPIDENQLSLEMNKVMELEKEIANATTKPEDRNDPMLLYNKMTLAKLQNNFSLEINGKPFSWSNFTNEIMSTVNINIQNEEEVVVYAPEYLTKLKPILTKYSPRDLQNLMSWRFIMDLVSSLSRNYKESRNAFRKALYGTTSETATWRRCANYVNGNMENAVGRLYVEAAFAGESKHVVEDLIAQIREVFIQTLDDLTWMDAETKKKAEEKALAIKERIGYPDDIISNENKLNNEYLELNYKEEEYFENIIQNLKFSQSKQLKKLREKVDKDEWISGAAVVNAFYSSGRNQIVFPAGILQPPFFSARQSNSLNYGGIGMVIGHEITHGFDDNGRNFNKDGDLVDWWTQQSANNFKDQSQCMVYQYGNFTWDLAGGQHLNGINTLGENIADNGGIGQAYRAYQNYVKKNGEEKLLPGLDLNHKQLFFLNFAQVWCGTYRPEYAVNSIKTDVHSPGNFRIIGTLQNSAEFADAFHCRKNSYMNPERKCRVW
Assay: NEP inhibition activity (Experiment F-1)
Assay type: biochemical
Design: membrane fraction prepared from rat renal cortex; from tissue; host or cells: rat renal cortex, membrane fraction (method of Booth and Kenny)
Settings: rat renal cortex membrane fraction
Experimental: As a source of the enzyme NEP, a membrane fraction prepared from rat renal cortex in accordance with the method of Booth and Kenny (A Rapid Method for the Purification of Microvilli from Rabbit Kidney., Andrew G. Booth and A. John Kenny, Biochem. j., 1974, 142, 575-581.) was employed. The NEP activity was determined in accordance with the method of Orlowsky and Wilk (Purification and Specificity of a Membrane-Bound Metalloendpeptidase from Bovine Pituitaries., Marian Orlowsky and Shrwin Wilk, Biochemistry, 1981, 20, 4942-4950.). Now the procedure will be briefly described.
As a substrate, benzoyl-glycyl-arginyl-arginyl-2-naphthylamide (benzoyl-Gly-Arg-Arg-2-naphthylamide (Nova Biochem, Switzerland)) was used. In the presence of an NEP enzyme preparation and excessive leucine aminopeptidase (sigma chemical Co., U.S.A.), the liberated naphthylamine was made to undergo color development with first garnet (Sigma chemical Co., U.S.A.), followed by the measurement of the absorbance at a wavelength of 540 nm.
With respect to the NEP inhibition activity and the ACE inhibition activity, the inhibitor was added to the assay systems of both enzyme activities as described above in such a manner as to give the final concentrations of 1, 3, 10, 30, 100, 300 and 1000 inhibition curves were prepared, and then the concentration at which 50% inhibition was achieved was taken as IC50.

IC50 [nM] | SMILES
11.1 | O=C(N[C@H]1CCC[C@H]2SC[C@@H](C(=O)O)N2C1=O)[C@@H](S)Cc1ccccc1 [Example F-17, [3R-[3α,6α(S*),9aβ]]-6-[[(S)-1-Oxo-2-thio-3-phenylpropyl]amino]-octahydro-5-oxothiazol[3,2-a]-azepine-3-carboxylic acid]
9.2 | CC[C@H](C)[C@H](S)C(=O)N[C@H]1CCC[C@H]2SC[C@@H](C(=O)O)N2C1=O [Example C-8, [3R-[3α,6α,(S*),9aβ]]-6-[[(2S,3S)-3-methyl-1-oxo-2-thiopentyl]amino]-octahydro-5-oxothiazol[3,2-a]-azepine-3-carboxylic acid]
13.5 | O=C(N[C@H]1Cc2ccccc2[C@H]2CCC[C@@H](C(=O)O)N2C1=O)[C@@H](S)Cc1ccccc1 [Comp. cpd. E-1, [4S-[4α,7α(R*),12bβ]]-7-[(1-oxo-2-(S)-thio-3-phenyl-propyl)amino]-1,2,3,4,6,7,8,12b-octahydro-6-oxopyrido-[2,1-a][2]benzazepine-4-carboxylic acid, reference compound]
